The nature of the data set: passive permeability, PAMPA, ADME assay (AID 1508612). The note with it: pH 7.4, 30.0 min, 50.0 µM. (In general: In PAMPA a lipid-coated filter parts donor from acceptor wells.)

For the compound `O=C1Nc2ccccc2C1Cc1cc(Cl)c(O)c(Cl)c1` (stereo not drawn), the Papp is 8.8 ×10⁻⁶ cm/s. Consider `O=C(O)c1ccc(O)c2ncc(N3CCCN(CCc4cccc5ccccc45)CC3)cc12`, for which the Papp worked out at 974 ×10⁻⁶ cm/s. Next, `CCn1cc(C(=O)N2CCN(c3cccc(Cl)c3)CC2)c2cc(OC)c(OC)cc2c1=O`: 833 ×10⁻⁶ cm/s; `CCn1c(C(=O)NCCc2ccc(OC)cc2)cc2sccc21`: 721 ×10⁻⁶ cm/s. Next, `CC1=C[C@@H](CN2C(=O)C(C)=C(C)C2=O)[C@H](C(C)C)C[C@H]1Cc1nc2c(C)cccc2[nH]1`: 585 ×10⁻⁶ cm/s. Take `NC(=O)C1CCN(c2nc(-c3ccccc3Br)cs2)CC1`: the Papp is 462 ×10⁻⁶ cm/s. For the compound `O=C(NCC1(c2nc(-c3ccccc3)cs2)CCOCC1)c1cccc(-c2noc(C(F)(F)F)n2)c1`, the Papp worked out at 665 ×10⁻⁶ cm/s. Next, `CC(C)Oc1cccc(-c2ccnc(N3CCC(C(N)=O)CC3)n2)c1`: > 1000 ×10⁻⁶ cm/s; `COc1ccc(-c2ccc3nc(-c4ccccc4C)oc3c2)c(OC)c1OC`: < 1 ×10⁻⁶ cm/s; `CCOC(=O)c1ccc(-n2c(C)cc(-c3nnc4n3CCCCC4)c2C)cc1`: 353 ×10⁻⁶ cm/s.

`Cc1nc(Nc2n[nH]c3c2CN(C(=O)N[C@H](CN(C)C)c2ccccc2)C3(C)C)c2sccc2n1` displayed an apparent permeability coefficient (Papp) of 2.31 ×10⁻⁶ cm/s. Compound `O=C1Nc2ccccc2/C1=C\c1ccc(C(=O)O)cc1` came in with a Papp of 3.96 ×10⁻⁶ cm/s. `O=C1Nc2ccc(C(=O)c3ccco3)cc2/C1=C/c1cc(Cl)c(O)c(Cl)c1`: the apparent permeability (Papp) was 41.1 ×10⁻⁶ cm/s. Next, `O=C(CCCCCCC(=O)Nc1ccccc1)NO`: 63.4 ×10⁻⁶ cm/s; `CN(C)C(=O)NC1CCC(CCN2CCN(c3cccc(Cl)c3Cl)CC2)CC1` (stereo not drawn): 514 ×10⁻⁶ cm/s. Turning to `CCn1nc(C2CCN(C(=O)CCO)CC2)nc1-c1cnc(N)c(-c2nnc(C(C)(C)C)o2)n1`, the Papp was 188 ×10⁻⁶ cm/s. `O=C(NCCCN1CCCC1=O)c1ccc(-c2ncc3cnc(-c4ccccc4)cn23)cc1` gave a Papp of 292 ×10⁻⁶ cm/s. With `CC1Oc2cc3c(-c4c(O)cc(O)c5c(O)c6c(cc45)OC(C)C(C)C6=O)c(O)cc(O)c3c(O)c2C(=O)C1C` (stereo not drawn), the apparent permeability coefficient (Papp) is 8.5 ×10⁻⁶ cm/s. Next, `O=C(Cc1ccc(Cl)c(Cl)c1)Nc1ccc(S(=O)(=O)Nc2nncs2)cc1`: 1.5 ×10⁻⁶ cm/s; `CN(C(=O)CSc1nc2c(c(=O)[nH]1)CCCC2)c1ccccc1`: 143 ×10⁻⁶ cm/s; `C/C=C1/CN2CC[C@@]34c5ccccc5N(C)[C@@H]3[C@@H]2C[C@@H]1[C@H]4C(=O)OC`: 895 ×10⁻⁶ cm/s. `Cc1ccc(NC(=O)c2ccncc2NS(=O)(=O)c2ccc(C)cc2)cc1` returned an apparent permeability coefficient (Papp) of 245 ×10⁻⁶ cm/s. Next, `CC1=C(C(=O)Nc2nncs2)C2(CCCC2)N=C(Nc2nc3ccccc3o2)N1`: < 1 ×10⁻⁶ cm/s. As for `CCn1c(C(=O)N2CCCC(C(=O)NCCc3ccc(C)cc3)C2)cc2sccc21` (stereo not drawn), the Papp is > 1000 ×10⁻⁶ cm/s.

`COc1cc2ncnc(Oc3cccc(NC(=O)Nc4cc(C(C)(C)C(F)(F)F)on4)c3)c2cc1OC` returned a Papp of 36.1 ×10⁻⁶ cm/s. Next, `Cn1ccc2c(C(=O)NCc3cccnc3)nc(-c3ccccc3C#N)cc21`: 732 ×10⁻⁶ cm/s; `CC(C)(C)c1ccc(C(=O)Nc2ccc3c(c2)CCCN3C(=O)c2cccs2)cc1`: 181 ×10⁻⁶ cm/s. Next, `Nc1nc2c(s1)C(c1ccccc1)CC(=O)N2` (stereo not drawn): 19.3 ×10⁻⁶ cm/s; `COc1ccc(CNC(=O)c2sc3nc(C)cc(C)c3c2N)cc1`: > 1000 ×10⁻⁶ cm/s. `Cc1ccc(S(=O)(=O)Nc2cnccc2C(=O)Nc2nc3ccccc3s2)cc1` displayed a Papp of 475 ×10⁻⁶ cm/s. Next, `COc1cccc(CNc2ccc(S(=O)(=O)Nc3nccs3)cc2)c1O`: 35.8 ×10⁻⁶ cm/s.

In the case of `CC(=O)NCCNC[C@@H]1C=C(C)[C@H](Cc2nnc(-c3ccccc3)o2)C[C@H]1C(C)C`, the Papp amounted to 624 ×10⁻⁶ cm/s. As to `Cc1cc(-c2nnc3n2CCCCC3)c(C)n1-c1ccc(Cl)cc1`, the Papp was > 1000 ×10⁻⁶ cm/s. The compound `O=[S+]([O-])(Nc1ccc(N2CCNCC2)cc1)c1ccc(NCc2cccc(Cl)c2O)cc1` yielded a Papp of 7.65 ×10⁻⁶ cm/s. For the compound `Fc1ccc(Cc2nc3nccc(-c4cccs4)n3n2)cc1`, the apparent permeability coefficient (Papp) is > 1000 ×10⁻⁶ cm/s.

For the compound `C[C@]12N[C@H](Cc3ccccc31)c1ccccc12`, the Papp was > 1000 ×10⁻⁶ cm/s. Next, `O=C1CCCC2=C1C1(CCS(=O)(=O)C1)N=C(Nc1nc3ccccc3o1)N2` (stereo not drawn): 176 ×10⁻⁶ cm/s; `COc1ccc(-n2c(C)cc(-c3nnc4n3CCCCC4)c2C)cc1`: 488 ×10⁻⁶ cm/s. Next, `Cc1nc(Sc2nnnn2C)c2c(-c3ccccc3)csc2n1`: 826 ×10⁻⁶ cm/s; `CC(=O)c1cccc(-c2csc3ncnc(Sc4nnnn4C)c23)c1`: 239 ×10⁻⁶ cm/s.

As for `CN(C)CC(=O)NC1CCCc2c1cnn2-c1ccc(F)cc1F` (stereo not drawn), the Papp stood at 412 ×10⁻⁶ cm/s. `COc1c(O)cc2c(c1OC)-c1ccc(SC)c(=O)cc1C(NC(C)=O)CC2` (stereo not drawn) showed a Papp of 19.5 ×10⁻⁶ cm/s. `N#Cc1cccc(S(=O)(=O)Nc2cnccc2C(=O)Nc2nc(-c3ccccc3)cs2)c1` showed a Papp of 189 ×10⁻⁶ cm/s. Next, `COc1ccc(C2Nc3ccccc3C(=O)N2Cc2ccco2)cc1` (stereo not drawn): 799 ×10⁻⁶ cm/s. Next, `CCc1cccc(C)c1Nc1c(-c2ccc(N(C)C)cc2)nc2ncccn12`: > 1000 ×10⁻⁶ cm/s. Next, `O=C(c1ccc2ncccc2c1)N1CCc2c(nc3cc[nH]n3c2=O)C1`: 101 ×10⁻⁶ cm/s; `COc1cccc(CNc2ccc(S(=O)(=O)Nc3nc(C)cs3)cc2)c1O`: 128 ×10⁻⁶ cm/s; `c1ccc(CNc2nc(NCc3ccccc3)c3ccccc3n2)cc1`: 253 ×10⁻⁶ cm/s. As to `Cc1ccc(S(=O)(=O)Nc2cccc(C(=O)Nc3nc(-c4ccccc4)cs3)c2Cl)cc1`, the Papp is < 1 ×10⁻⁶ cm/s.

As to `CC(=O)N1CCc2c(sc3c2c(=O)n(-c2ccccc2)c(=O)n3CC(=O)c2ccccc2)C1`, the Papp is 714 ×10⁻⁶ cm/s. The compound `O=C1CCCC2=C1C(c1[nH]ncc1Cl)N=C(Nc1nc3ccc(F)cc3o1)N2` (stereo not drawn) showed a Papp of 653 ×10⁻⁶ cm/s. Next, `CN1CCN(c2ccc(Nc3nc(-c4ccncc4)nc4ccccc34)cc2F)CC1`: > 1000 ×10⁻⁶ cm/s.

`Cc1cccc(N2CCN(C(=O)c3ccc4c(c3)C(O)CCCCCN4C)CC2)c1` (stereo not drawn): the Papp is < 1 ×10⁻⁶ cm/s. Next, `CSc1nn(Cc2cccc(C)c2)c(N)c1S(=O)(=O)c1ccccc1`: 516 ×10⁻⁶ cm/s; `CC[C@H]1CN2CCC3CC(OC)C(OC)CC3[C@@H]2C[C@@H]1C[C@H]1NCCC2=C1CC(OC)=C(O)C2` (stereo partly drawn): 153 ×10⁻⁶ cm/s; `COc1cccc(OC)c1C(=O)Nc1ccccc1C(=O)Nc1cccc(C(F)(F)F)c1`: 899 ×10⁻⁶ cm/s. Next, `Cc1nc(N)nc2ccccc12`: 69.7 ×10⁻⁶ cm/s; `O=C1C2=C(Nc3ccccc3SC2c2ccco2)c2ccccc21` (stereo not drawn): 371 ×10⁻⁶ cm/s; `O=C(C=Cc1cccnc1)NCCCCC1CCN(C(=O)c2ccccc2)CC1`: 130 ×10⁻⁶ cm/s.

With `O=C(Nc1ccc(S(=O)(=O)Nc2nccs2)cc1)c1ccnc(-c2ccccc2)c1`, the Papp was < 1 ×10⁻⁶ cm/s. Next, `CNc1ccc(Br)cc(C(=O)/C=C/c2ccc(OC)cc2OC)c1=O`: 143 ×10⁻⁶ cm/s. On to `O=C(NCc1ccccc1)c1nc(S(=O)(=O)Cc2ccc(F)cc2)ncc1Cl`, for which the Papp stood at 350 ×10⁻⁶ cm/s.

The compound `Cc1ccc(/C=C/c2nc3ccccc3n2S(=O)(=O)c2cccc(Cl)c2)cc1` came in with a Papp of 11.5 ×10⁻⁶ cm/s. Next, `Oc1ccc(NCc2ccccc2OCc2ccccc2Cl)cc1`: 79.5 ×10⁻⁶ cm/s; `CCc1ccc(NC(=O)c2[nH]c(C)c(C(C)=O)c2C)cc1S(=O)(=O)Nc1cccc(C#N)c1`: 178 ×10⁻⁶ cm/s; `COC(=O)c1ccc(O)c2ncc(N3CCN(C)CC3)cc12`: 845 ×10⁻⁶ cm/s. Next, `NC(=O)C1CCN(c2nc(-c3ccc(Oc4ccccc4)cc3)cs2)CC1`: 953 ×10⁻⁶ cm/s. Next, `NC(=O)C1CCN(c2nccc(-c3ccc4c(c3)OCCO4)n2)CC1`: 289 ×10⁻⁶ cm/s; `O=C(NCC1Cn2cccc2CN1Cc1cccnc1)Nc1ccccc1` (stereo not drawn): < 1 ×10⁻⁶ cm/s; `COc1ccc(-n2nc(C3CCCN(C(=O)Nc4ccccc4)C3)[nH]c2=O)cc1` (stereo not drawn): 360 ×10⁻⁶ cm/s.

Regarding `CCN(CC)CCCCNc1ncc2cc(-c3c(Cl)cccc3Cl)c(NC(=O)NC(C)(C)C)nc2n1`, the Papp is > 1000 ×10⁻⁶ cm/s. Consider `COc1ccc(-c2nc3ccccc3c(=O)n2Cc2ccccc2)cc1COc1ccc(NC(C)=O)cc1`, for which the Papp was > 1000 ×10⁻⁶ cm/s. Compound `Nc1nc(Nc2ccc(S(N)(=O)=O)cc2)n(C(=S)Nc2c(F)cccc2F)n1` had a Papp of 6.07 ×10⁻⁶ cm/s. Next, `CCc1cccc(NC(=O)c2cc(-c3ccc[nH]3)n[nH]2)c1`: 87.7 ×10⁻⁶ cm/s. Regarding `COc1ccc(-c2nc(-c3c(C)noc3C)cc3c2cc(C)n3CCN(C)C)cc1OC`, the Papp was > 1000 ×10⁻⁶ cm/s. On to `CC(=O)N1CCN(c2ccc(OCc3nn(C)c(C)c3-c3cccc4c(CCCOc5cccc6ccccc56)c(C(=O)O)n(Cc5cccnc5)c34)cc2)CC1`, for which the Papp was 253 ×10⁻⁶ cm/s. The compound `CCc1nnc(NC(=O)c2nc(S(=O)(=O)Cc3ccc(C)cc3)ncc2Cl)s1` displayed a Papp of 32.9 ×10⁻⁶ cm/s. Compound `S=c1[nH]c2ccccc2n1CCc1ccccc1` displayed a Papp of 126 ×10⁻⁶ cm/s. `Cc1cc(NS(=O)(=O)c2ccc(N(C)C(=O)Cc3ccc(Cl)c(Cl)c3)cc2)no1` came in with a Papp of 48.1 ×10⁻⁶ cm/s. Take `Cc1ccc(CC(=O)Nc2nc(-c3ccc4c(c3)CCN4C(=O)c3ccccc3C)c(C)s2)cc1C`: the Papp was found to be 222 ×10⁻⁶ cm/s. Turning to `c1ccc2c(Nc3ccn[nH]3)nc(-c3ccncc3)nc2c1`, the Papp came out at 880 ×10⁻⁶ cm/s. As to `O=c1[nH]nc(Sc2ncc([N+](=O)[O-])s2)n1-c1ccc2c(c1)OCCO2`, the Papp was 137 ×10⁻⁶ cm/s. Next, `O=C1CCc2cc(S(=O)(=O)Nc3ccc(F)c(Cl)c3)c(F)cc2N1`: 861 ×10⁻⁶ cm/s. `CCCCCCOc1ccc(OC(=O)c2ccncc2)cc1` displayed a Papp of 600 ×10⁻⁶ cm/s. In turn, `CC(C)COc1ccc(-c2csc(N3CCC(C(N)=O)CC3)n2)cc1` had a Papp of 48.4 ×10⁻⁶ cm/s.

In turn, `COc1ccc(Nc2nnc(-c3ccc(C)c(S(=O)(=O)NCc4nc5ccccc5[nH]4)c3)c3ccccc23)cc1` registered a Papp of 11.9 ×10⁻⁶ cm/s. Next, `CCOc1ccc(Nc2nc(C)c(NC(=O)c3ccc(C)cc3)c(Nc3ccc(OCC)cc3)n2)cc1`: 211 ×10⁻⁶ cm/s; `CCc1ccc(NC(=O)[C@H](Cc2c[nH]c3ccccc23)NC(=O)[C@@H]2Cc3ccccc3CN2)cc1`: 111 ×10⁻⁶ cm/s. Next, `COc1cccc(CNc2ccc(S(=O)(=O)Nc3ccc(C)nc3)cc2)c1O`: 973 ×10⁻⁶ cm/s. Next, `COc1ccc(-c2cc3nccn3c(Nc3ncccc3C(N)=O)n2)cc1OC`: 26.4 ×10⁻⁶ cm/s; `Cn1cc2c3c(cccc31)CN(C(=O)c1ccc(F)c(Cl)c1)CC2`: > 1000 ×10⁻⁶ cm/s.

As for `N#Cc1ccccc1Nc1ncc(-c2cccc3ccccc23)o1`, the Papp stood at 379 ×10⁻⁶ cm/s. Next, `NC(=O)COc1cccc(C2CC(=O)Nc3nc(N4CCCCC4)sc32)c1` (stereo not drawn): 15.8 ×10⁻⁶ cm/s.

Usually Papp stands for the rate of passage across a membrane or cell layer, normalised by area and donor concentration. The low end stands for poor permeation, the high end for ready permeation.
